Results on two compounds are retold here after EP0240874A1, “Highly resorbable preparation of hymecromone, and method for its production” (Dolorgiet GmbH & Co. KG, priority 1986, dated 1987).

For data set [1] the following is noted: cold and warm water; from Beilsteins Handbuch; cited from earlier work.
A further data set is described as follows: Solubility in water. As to conditions: general statement, no test described. It is filed as physicochemical.

Regarding `Cc1cc(=O)oc2cc(O)ccc12` [Hymecromon, 7-Hydroxy-4-methyl-cumarin], the “Löslichkeit in kaltem und warmen Wasser” value in data set [1] was “nahezu unlöslich”.

Take `Cc1cc(=O)oc2cc(O)ccc12` [Natriumsalz]: the “Löslichkeit in Wasser” value in “Solubility in water” was “gut löslich”.
